ChEMBL document CHEMBL2321749, “Incorporation of rapid thermodynamic data in fragment-based drug discovery” (J Med Chem, 2013)

Assays:
[1] = molecular target: T1, Steroid Delta-isomerase (Pseudomonas putida, UniProt P07445); assay: Binding affinity to Pseudomonas putida KSI by isothermal titration calorimetry
T1 sequence (P07445 whole entry): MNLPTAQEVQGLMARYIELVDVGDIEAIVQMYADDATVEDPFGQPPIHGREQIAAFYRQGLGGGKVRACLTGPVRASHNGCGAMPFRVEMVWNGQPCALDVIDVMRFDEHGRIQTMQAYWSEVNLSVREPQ

[2] = molecular target: T2, Steroid Delta-isomerase (Pseudomonas putida) (UniProt P07445); assay: Ratio of KD for Pseudomonas putida KSI by surface plasmon resonance analysis to KD for Pseudomonas putida KSI by surface plasmon resonance analysis
T2 sequence (whole entry): T1 sequence (P07445 whole entry)

[3] = molecular target: T1, Steroid Delta-isomerase; assay: Binding affinity to Pseudomonas putida KSI by surface plasmon resonance analysis

Q: `NC(=O)Nc1cccc(C(F)(F)F)c1` was tested. Which Kd [1] did it give?
A: The Kd was 46 µM.

Q: Which results are given for `CN1CCC2(C)c3cc(O)ccc3N(C)C12` (stereo not drawn)?
A: Ratio [2]: 1.8; Kd [1]: 180 µM

Q: With `Cn1cc(C(N)=O)c2ccccc21` as the compound, how does the Kd [1] read?
A: Its Kd is 63 µM.

Q: For `C[C@H](CCC(=O)O)[C@H]1CC[C@H]2[C@@H]3CC[C@@H]4C[C@H](O)CC[C@]4(C)[C@H]3C[C@H](O)[C@]12C` [DEOXYCHOLIC ACID], which Kd [3] is on record?
A: Its Kd is 16 µM.

Q: What about the Kd [1] of the same compound?
A: Its Kd is 16 µM.

Q: Which Kd [1] does the source give for `Cc1nnc2ccc(N3CCCC3)nn12` here?
A: The Kd was 22 µM.

Q: `NC(=O)/C=C/c1cccc(C(F)(F)F)c1` was tested. Which Kd [1] did it give?
A: Its Kd is 50 µM.
